Reference: US20190240282A1, “Nanocage” (IMPERIAL INNOVATIONS LIMITED, priority 2016, published 2019)

Legend:
HT-29 cells [1] = assay: LC-MS of lysed cells after dosing with the nanocage-antibody complex; assay type: cell-based; conditions: delivered by the nanocage with anti-EGFR; cells washed prior to lysis
Description: HT-29 cells were grown in DMEM medium with 10% FBS overnight. Cells were then treated with the nanocage-antibody complex (100 μl) at 37° C. for different 48 h and 72 h. After incubation, the cells were washed 3× with cold PBS. Re-suspended cells were analysed by LC-MS (Agilent 6550), data were quantified using a 20 ppm window for Dox and PI based on a calibrated standard;
Purified protein and cell extract samples were analysed by LCMS on an Agilent 6550. LC separation was achieved using a 1290 Infinity system (Agilent, Santa Clara, Calif.) and a Vydac 214MS C4 column, 2.1×150 mm and […], (Grace, Columbia, Md.) at a temperature of 35° C. with a buffer flow rate of 0.2 ml/min. with a denaturing mobile phase: buffer A was 0.1% formic acid in water and buffer B was 0.1% formic acid in acetonitrile. Elution of components was achieved using a linear gradient from 3% to 40% buffer B over 18.5 min. On-line mass spectra were accumulated on a 6550 quadrupole time-of-flight instrument with a dual electrospray Jet Stream source (Agilent). Mass spectra were acquired of the m/z range of 100-1700 at a rate of 0.6 spectra per second. […]
Further evaluation of drug delivery was performed by mass spectrometry. Following the dosing procedure used above, cells were washed prior to lysis and drug presence measured by LC-MS (Agilent 6550). […]

HT29 cells = assay: Flow cytometry, antibody directed cell binding of GFP nanocage; assay type: cell-based
Description: (§1) Purified wt ZZ-GFP-hFTN (20 μg) was mixed with either anti-NK1.1 antibody (1 μg) or anti-EGFR antibody (1 μg) in 210 μl of PBS. For each assay, 50 μl of the nanocage-antibody was mixed with 1×10^6 cells of either HT29 or MNK1.1 in 100 μl. Cells were analysed an a BD Fortessa using the FITC channel (ex 488 nm; emm 530-30 nm) to observe GFP fluorescence. […] Nanocage antibody are shown with MNK1.1 cells (B) and HT29 cells (D);
(§2) Flow cytometry was performed on a BD Fortessa using the FITC channel to observe GFP (ex 488 nm; emm 530-30 nm; ToPro-3 was imaged in red channel (640 nm ex; 670/14 emission). Data was analysed using Flow-Jo software.
(§3) Ferritin fusions containing an N-terminal ZZ domain, in principle, should be able to bind to IgG isotype antibodies since the Z-domain is a synthetic derivative of an IgG binding domain from Staphylococcus aureus protein A. The inventors evaluated the specificity with which they can direct the targeting of the ferritin nanocage to specific cell types by direct antibody interactions. To establish a fluorescent basis for determining cell binding they used the GFP labelled wt ZZ-GFP-hFTN.

MNK1.1 cells = assay: as above; assay type: cell-based, mouse
Description: as §1, §2, §3

HT-29 cells [2] = assay: Phenotypic cell death assay using Vybrant cell staining and flow cytometry; assay type: cell-based; conditions: after 48 h, free drug alone, 5 μM
Description: HT-29 cells were trypsinised and cell viability was assessed using the Trypan blue exclusion assay—count cells treated with Trypan blue dye using a haemocytometer, and determine the volume of cell suspension that contains 5×10^5 live cells. Live cells (5×10^5) seeded into a 12-well plate with a final volume of 500 μL. This final 500 μL volume will consist of 5×10^5 cells+medium+drug-Au-ZZ-hFTN+anti-EGFR antibody (0.5-1 μg). The plate was incubated in a tissue culture incubator set at 37° C., 5% CO2, 95% humidity for 24 h or 48 h before the experiment was stopped. Uptake of drug-Au-ZZ-hFTN by cells was stopped by removing the 500 μL solution containing test or control compounds, trypsinising cells and pelleting cells in preparation for cytotoxicity assays, e.g. Vybrant cell apoptosis assay. […] Within 30 min after the incubation period, the stained cells were analysed by flow cytometry, using 488 nm excitation with green fluorescence emission for YOPRO R-1 (i.e., 530/30 bandpass) and red fluorescence emission for propidium iodide (i.e., 610/20 bandpass), gating on cells to exclude debris. […] The stained cell population will separate into three groups: live cells show a low level of green fluorescence, apoptotic cells show an incrementally higher level of green fluorescence, and dead cells show both red and green fluorescence. […]

CC[N+](C)(CC)CCC[n+]1c(-c2ccccc2)c2cc(N)ccc2c2ccc(N)cc21.[I-].[I-] [PI, propidium iodide]
drug presence in lysed cells by LC-MS (HT-29 cells [1]): present in the lysed cells

wt ZZ-GFP-hFTN: wild-type human heavy chain ferritin with N-terminal ZZ antibody binding domain and GFP, forms nanocage
binding of the nanocage to cells (GFP fluorescence) (HT29 cells; absence of antibody): no discernible background binding
binding of the nanocage to cells (GFP fluorescence) (HT29 cells; presence of anti-EGFR antibody): complete shift in the fluorescence of the population
binding of the nanocage to cells (GFP fluorescence) (MNK1.1 cells; absence of antibody): no discernible background binding
binding of the nanocage to cells (GFP fluorescence) (MNK1.1 cells; presence of anti-NK1.1 antibody): complete shift in the fluorescence of the population

CC(=O)O[C@H]1C(=O)[C@@]2(C)[C@H]([C@H](OC(=O)c3ccccc3)[C@]3(O)C[C@H](OC(=O)[C@H](O)[C@@H](NC(=O)c4ccccc4)c4ccccc4)C(C)=C1C3(C)C)[C@]1(OC(C)=O)CO[C@@H]1C[C@@H]2O [Pac, Paclitaxel]
cell death (HT-29 cells [2]): ~9%

COc1cccc2c1C(=O)c1c(O)c3c(c(O)c1C2=O)C[C@@](O)(C(=O)CO)C[C@@H]3O[C@H]1C[C@H](N)[C@H](O)[C@H](C)O1 [Dox, doxorubicin]
drug presence in lysed cells by LC-MS (HT-29 cells [1]): present in the lysed cells
